From PubChem BioAssay (NCI)
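How tested: cells in 96-well plates exposed to compound for 48 hours at five concentrations. The concentration for full growth arrest is given as TGI.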

What was measured:
Experiment in all cases: NCI tumour cell line growth inhibition, 48 h
A549 NSCLC = tested on: A549 NSCLC
ACHN renal = tested on: ACHN renal
CAKI-1 renal = tested on: CAKI-1 renal
CCRF-CEM leukemia = tested on: CCRF-CEM leukemia
COLO 205 colon = tested on: COLO 205 colon
DLD-1 colon = tested on: DLD-1 colon
DMS 114 small cell lung = tested on: DMS 114 small cell lung
DMS 273 small cell lung = tested on: DMS 273 small cell lung
EKVX NSCLC = tested on: EKVX NSCLC
HCT-15 colon = tested on: HCT-15 colon
HL-60(TB) leukemia = tested on: HL-60(TB) leukemia
HOP-62 NSCLC = tested on: HOP-62 NSCLC
HOP-92 NSCLC = tested on: HOP-92 NSCLC
HT29 colon = tested on: HT29 colon
IGROV1 ovarian = tested on: IGROV1 ovarian
K-562 leukemia = tested on: K-562 leukemia
KM12 colon = tested on: KM12 colon
KM20L2 colon = tested on: KM20L2 colon
LOX IMVI melanoma = tested on: LOX IMVI melanoma
LXFL 529 NSCLC = tested on: LXFL 529 NSCLC
M14 melanoma = tested on: M14 melanoma
M19-MEL melanoma = tested on: M19-MEL melanoma
MALME-3M melanoma = tested on: MALME-3M melanoma
MOLT-4 leukemia = tested on: MOLT-4 leukemia
NCI-H226 lung = tested on: NCI-H226 lung
NCI-H23 lung = tested on: NCI-H23 lung
NCI-H460 lung = tested on: NCI-H460 lung
NCI-H522 lung = tested on: NCI-H522 lung
OVCAR-3 ovarian = tested on: OVCAR-3 ovarian
OVCAR-4 ovarian = tested on: OVCAR-4 ovarian
OVCAR-5 ovarian = tested on: OVCAR-5 ovarian
OVCAR-8 ovarian = tested on: OVCAR-8 ovarian
RPMI-8226 leukemia = tested on: RPMI-8226 leukemia
RXF 393 renal = tested on: RXF 393 renal
RXF-631 renal = tested on: RXF-631 renal
SF-268 CNS = tested on: SF-268 CNS
SF-295 CNS = tested on: SF-295 CNS
SF-539 CNS = tested on: SF-539 CNS
SK-MEL-2 melanoma = tested on: SK-MEL-2 melanoma
SK-OV-3 ovarian = tested on: SK-OV-3 ovarian
SN12C renal = tested on: SN12C renal
SNB-19 CNS = tested on: SNB-19 CNS
SNB-75 CNS = tested on: SNB-75 CNS
SNB-78 CNS = tested on: SNB-78 CNS
SR leukemia = tested on: SR leukemia
SW-620 colon = tested on: SW-620 colon
U251 CNS = tested on: U251 CNS
UACC-257 melanoma = tested on: UACC-257 melanoma
UACC-62 melanoma = tested on: UACC-62 melanoma
UO-31 renal = tested on: UO-31 renal

## C1=CC=C2NCCc3cccc(c3)CCNC3=CC=CC=CC3=NCCCCCCN=C2C=C1
A549 NSCLC
  TGI: > 100 µM
ACHN renal
  TGI: > 100 µM
CAKI-1 renal
  TGI: > 100 µM
CCRF-CEM leukemia
  TGI: > 100 µM
COLO 205 colon
  TGI: 38.8 µM
DLD-1 colon
  TGI: > 100 µM
DMS 114 small cell lung
  TGI: 26.1 µM
DMS 273 small cell lung
  TGI: 21.9 µM
EKVX NSCLC
  TGI: > 100 µM
HCT-15 colon
  TGI: 56.3 µM
HL-60(TB) leukemia
  TGI: 20.9 µM
HOP-62 NSCLC
  TGI: 34.4 µM
HOP-92 NSCLC
  TGI: 54 µM
HT29 colon
  TGI: > 100 µM
IGROV1 ovarian
  TGI: > 100 µM
K-562 leukemia
  TGI: > 100 µM
KM12 colon
  TGI: 47.3 µM
KM20L2 colon
  TGI: 24.8 µM
LOX IMVI melanoma
  TGI: 26.9 µM
LXFL 529 NSCLC
  TGI: 23.6 µM
M14 melanoma
  TGI: 29.8 µM
M19-MEL melanoma
  TGI: 30.3 µM
MALME-3M melanoma
  TGI: > 100 µM
MOLT-4 leukemia
  TGI: 38.3 µM
NCI-H226 lung
  TGI: 86 µM
NCI-H23 lung
  TGI: 48.3 µM
NCI-H460 lung
  TGI: 25.3 µM
NCI-H522 lung
  TGI: 47.2 µM
OVCAR-3 ovarian
  TGI: 99 µM
OVCAR-4 ovarian
  TGI: 39 µM
OVCAR-5 ovarian
  TGI: 47.8 µM
OVCAR-8 ovarian
  TGI: 61.6 µM
RPMI-8226 leukemia
  TGI: 31.1 µM
RXF 393 renal
  TGI: 32.4 µM
RXF-631 renal
  TGI: 28 µM
SF-268 CNS
  TGI: > 100 µM
SF-295 CNS
  TGI: 49.6 µM
SF-539 CNS
  TGI: 23.5 µM
SK-MEL-2 melanoma
  TGI: 79.8 µM
SK-OV-3 ovarian
  TGI: 70.6 µM
SN12C renal
  TGI: > 100 µM
SNB-19 CNS
  TGI: > 100 µM
SNB-75 CNS
  TGI: 49.9 µM
SNB-78 CNS
  TGI: > 100 µM
SR leukemia
  TGI: 82.4 µM
SW-620 colon
  TGI: 80.7 µM
U251 CNS
  TGI: > 100 µM
UACC-257 melanoma
  TGI: 41.8 µM
UACC-62 melanoma
  TGI: 50.7 µM
UO-31 renal
  TGI: 89.1 µM
